# Experimental data as given in patent US20160009763A1, “PEPTIDE MOLECULAR MATERIALS” (National Chiao Tung University, priority 2014, published 2016).
# pIC50: −log10 of the molar value. Non-standard residues stand in square brackets, D forms with d. Residues, ends and D or L forms follow the SMILES beside them. ξ: configuration not given here. *: point of attachment. Phenylacetyl(2,3,4,5,6-F5) = O=C(Cc1c(F)c(F)c(F)c(F)c1F)*; Phenylacetyl(4-F) = O=C(Cc1ccc(F)cc1)*; Hydrocinnamoyl = O=C(CCc1ccccc1)*; Ile(3ξ) = CCC(C)[C@H](N)C(=O)O; PhAc = O=C(Cc1ccccc1)*; Bz = O=C(c1ccccc1)*
# Legend:
# [1] = Phase inversion temperature (Tgel-sol) test of hydrogels; assay type: physicochemical; details: heated 2° C./min until hydrogel began to flow
# Method: Hydrogels (A) to (R) were obliquely placed in water bath while a beaker including water and a thermometer was also placed in the water bath. The hydrogels were heated (2° C./min) until such hydrogels began to flow (the gel phase was changed to the sol phase). The inversion temperatures when the hydrogels began to flow were recorded, and such temperatures were the phase inversion temperatures of hydrogels.
# [2] = Rheological test of hydrogels (angular frequency sweep); assay type: physicochemical; details: angular frequency sweep 0.1 to 100 rad/s, strain=0.8%, 25° C.
# Method: In the present invention, Rheological test was performed by Anton Paar rheometer. MTT cell viability assay was performed by Sunrise absorbance microplate reader (DV990/BV4 GDV Programmable MPT reader).
# Rheological tests of hydrogels were performed by Anton Paar rheometer. 25 mm parallel plate was used in the experimentation. 400 μL of hydrogels (A) to (R) were placed on the parallel plate. Angular frequency sweep test: measurement range (frequency 0.1 to 100 rad/s, strain=0.8%) is 13 points per 10 rounds. Sweep model is “logarithm (log)” and the operation temperature is 25° C.
# In FIG. 3, G′ represents storage modulus, and G″ represents loss modulus. The higher G′ and G″ are, the better stability the hydrogel is.
# [3] = test system: Hela cell; assay: Wound healing assay, Hela cell; assay type: cell-based; details: medium with 1 wt % of hydrogel
# Method: Various cells were washed with PBS (phosphate buffer) twice and were suspended in a T-75 tissue culture flask. 0.25% trypsin containing 0.1% EDTA was added and then the cells were re-suspended in 5 mL of complete medium. 30000 cells (in 3 mL of medium) were placed in each vial on a 6-well plate to form a fusion monolayer. […] 2 mL of PBS was used twice to remove the floating cells, and was then replaced with 3 mL of complete medium. The image taken at 0 hour was used as a reference point. […] The images at different hours were taken at an appropriate region. Control: no compound added.
# [4] = State of hydrogels at 37° C. and 4° C. (TEM images); assay type: physicochemical
# Method: The material, technique and general process in the present invention are suitable for the following examples. All used chemical reagents and solutions can be obtained from suppliers. ^1H and ^13C spectrums were measured by Bruker DRX-300. LC-MS was measured by MICROMASS Q-Tof. TEM was measured by Hitachi HT7700 Bio-transmission electron microscope.
# [5] = test system: CTX TNA2 cell; assay: Wound healing assay, CTX TNA2 cell; assay type: cell-based; details: medium with 1 wt % of hydrogel, versus Control
# Method: Various cells were washed with PBS (phosphate buffer) twice and were suspended in a T-75 tissue culture flask. 0.25% trypsin containing 0.1% EDTA was added and then the cells were re-suspended in 5 mL of complete medium. 30000 cells (in 3 mL of medium) were placed in each vial on a 6-well plate to form a fusion monolayer. After the adhesion for 24 hours, the cell monolayer was scratched by a p200 pipet tip to create a wound. 2 mL of PBS was used twice to remove the floating cells, and was then replaced with 3 mL of complete medium. The image taken at 0 hour was used as a reference point. The medium was replaced with 3 mL of medium containing 1 wt % of hydrogel and the plate was incubated at 37° C. and 5% CO2 for 24 hours. The images at different hours were taken at an appropriate region. Control: no compound added.
# [6] = test system: Hela cell; assay: MTT cell viability assay, Hela cell; assay type: cell-based; details: Homo sapiens, read-out: IC50 inhibition concentration
# Method: (§1) The bio-compatibility of the hydrogels prepared from the different peptide materials was measured by MTT cell viability assay.
# (§2) MTT cell viability assay was performed by Sunrise absorbance microplate reader (DV990/BV4 GDV Programmable MPT reader). Various cells were seeded in a 24-well plate containing 0.5 mL medium (DMEM) with 10% fetal bovine serum (FBS) and 1% penicillin. In each well, the cell concentration was 50000 cells and cells were cultured for 24 hours. After seeding the cells, hydrogels with the different concentrations ([…]) were added. The medium in each well was replaced with the flesh medium containing 0.5 mL of MTT reagent (4 mg mL^−1) after 24 and 48 hours. After an additional 4 hours, the medium containing MTT reagent was removed and DMSO (0.5 mL/well) was added to dissolve formazan crystals. The cells in the 24-well plate were transferred to a 96-well plate. The optical densities of such obtained solutions were measured at 595 nm by Sunrise absorbance microplate reader (DV990/BV4 GDV Programmable MPT reader).
# (§3) The untreated cells were used as a comparative example. The cell viability was calculated based on the following equation:
# (§4) Cell viability(%)=ODsample/ODcomparative example
# [7] = MTT cell viability assay, Hela cell; assay type: cell-based; details: human, HeLa cells, hydrogel up to 500 μM
# Method: as §1, §2, §3, §4
# [8] = test system: CTX TNA2 cell; assay: MTT cell viability assay, CTX TNA2 cell; assay type: cell-based; details: read-out: IC50 inhibition concentration
# Method: as §1, §2, §3, §4
# [9] = MTT cell viability assay, CTX TNA2 cell; assay type: cell-based; details: rat, CTX TNA2 cells, hydrogel up to 500 μM
# Method: as §1, §2, §3, §4
# [10] = MTT cell viability assay, MCF-7 cell; assay type: cell-based; details: human, MCF-7 cells, hydrogel up to 500 μM
# Method: as §1, §2, §3, §4
# [11] = test system: MCF-7 cell; assay: MTT cell viability assay, MCF-7 cell; assay type: cell-based; details: Homo sapiens, MCF7, read-out: IC50 inhibition concentration
# Method: as §1, §2, §3, §4
phase inversion temperature Tgel-sol [1],storage modulus (G′) [2],Compound,other results
72 °C,6×10^4 Pa,"CC(C)[C@H](NC(=O)Cc1c(F)c(F)c(F)c(F)c1F)C(=O)N[C@@H](Cc1ccccc1)C(=O)O [hydrogel (G), PFB-Val-Phe]",
56 °C,2×10^3 Pa,"O=C(Cc1c(F)c(F)c(F)c(F)c1F)N[C@@H](Cc1ccccc1)C(=O)O [hydrogel (A), PFB-Phe]",wound healing after 48 hours [3]: healed completely
65 °C,6×10^3 Pa,"CCC(C)[C@H](NC(=O)Cc1ccccc1)C(=O)N[C@@H](CCCCN)C(=O)N[C@H](C(=O)N[C@@H](C)C(=O)N[C@H](C(=O)O)C(C)C)C(C)C (stereo partly drawn) [hydrogel (P), Phenylacetic Acid-Ile-Lys-Val-Ala-Val] (PhAc-[Ile(3ξ)]KVAV-OH)",
> 90 °C,1×10^4 Pa,"CCC(C)[C@H](NC(=O)CCc1ccccc1)C(=O)N[C@@H](CCCCN)C(=O)N[C@H](C(=O)N[C@@H](C)C(=O)N[C@H](C(=O)O)C(C)C)C(C)C (stereo partly drawn) [hydrogel (Q), 3-Phenylpropionic Acid-Ile-Lys-Val-Ala-Val] (Hydrocinnamoyl-[Ile(3ξ)]KVAV-OH)",
38 °C,4×10^2 Pa,"O=C(Cc1c(F)c(F)c(F)c(F)c1F)NCC(=O)N[C@@H](Cc1ccccc1)C(=O)N[C@@H](Cc1ccccc1)C(=O)O [hydrogel (L), PFB-Gly-Phe-Phe]",state of hydrogel at 4° C. [4]: liquid; state of hydrogel at 37° C. [4]: colloidal state
46 °C,3×10^3 Pa,"CC(C)[C@H](NC(=O)[C@H](Cc1ccccc1)NC(=O)Cc1c(F)c(F)c(F)c(F)c1F)C(=O)O [hydrogel (F), PFB-Phe-Val]",wound healing after 48 hours [3]: healed completely
66 °C,1×10^4 Pa,"CCC(C)[C@H](NC(=O)Cc1ccc(F)cc1)C(=O)N[C@@H](CCCCN)C(=O)N[C@H](C(=O)N[C@@H](C)C(=O)N[C@H](C(=O)O)C(C)C)C(C)C (stereo partly drawn) [hydrogel (N), 4-Fluorophenylacetic Acid-Ile-Lys-Val-Ala-Val] ({Phenylacetyl(4-F)}-[Ile(3ξ)]KVAV-OH)",
62 °C,6×10^3 Pa,"CCC(C)[C@H](NC(=O)c1ccccc1)C(=O)N[C@@H](CCCCN)C(=O)N[C@H](C(=O)N[C@@H](C)C(=O)N[C@H](C(=O)O)C(C)C)C(C)C (stereo partly drawn) [hydrogel (O), Benzoic Acid-Ile-Lys-Val-Ala-Val] (Bz-[Ile(3ξ)]KVAV-OH)",
55 °C,2×10^3 Pa,"CC(C)C[C@H](NC(=O)Cc1c(F)c(F)c(F)c(F)c1F)C(=O)N[C@@H](Cc1ccccc1)C(=O)O [hydrogel (I), PFB-Leu-Phe]",state of hydrogel at 4° C. [4]: liquid; state of hydrogel at 37° C. [4]: colloidal state
69 °C,7×10^2 Pa,"CC(C)C[C@@H](NC(=O)Cc1c(F)c(F)c(F)c(F)c1F)C(=O)N[C@H](Cc1ccccc1)C(=O)O [hydrogel (J), PFB-D-L-D-F]",
46 °C,6×10^3 Pa,"O=C(Cc1ccc(F)cc1)N[C@@H](Cc1ccccc1)C(=O)N[C@@H](Cc1ccccc1)C(=O)O [hydrogel (K), 4-Fluorobenzyl-Phe-Phe]",
71 °C,1×10^4 Pa,"CCC(C)[C@H](NC(=O)Cc1c(F)c(F)c(F)c(F)c1F)C(=O)N[C@@H](Cc1ccccc1)C(=O)O (stereo partly shown) [hydrogel (H), PFB-Ile-Phe]",
48 °C,10^4 Pa,"O=C(O)CNC(=O)[C@H](Cc1ccccc1)NC(=O)Cc1c(F)c(F)c(F)c(F)c1F [hydrogel (B), PFB-Phe-Gly]",wound healing after 48 hours [3]: healed completely
43 °C,5×10^3 Pa,"O=C(Cc1c(F)c(F)c(F)c(F)c1F)N[C@@H](Cc1ccc(O)cc1)C(=O)N[C@@H](Cc1ccccc1)C(=O)O [hydrogel (C), PFB-Tyr-Phe]",healing effect [5]: better than that of Control; wound healing after 48 hours [3]: healed completely; pIC50 [6]: < 3.30; viability [7]: ~100%; pIC50 [8]: < 3.30; viability [9]: ~100%; viability [10]: ~100%; pIC50 [11]: < 3.30
48 °C,4×10^3 Pa,"C[C@H](NC(=O)[C@H](Cc1ccccc1)NC(=O)Cc1c(F)c(F)c(F)c(F)c1F)C(=O)O [hydrogel (E), PFB-Phe-Ala]",wound healing after 48 hours [3]: healed completely
40 °C,1.0×10^3 Pa,"CCC(C)[C@H](NC(=O)[C@H](Cc1ccccc1)NC(=O)Cc1c(F)c(F)c(F)c(F)c1F)C(=O)N[C@@H](CCCCN)C(=O)N[C@H](C(=O)N[C@@H](C)C(=O)N[C@H](C(=O)O)C(C)C)C(C)C (stereo partly drawn) [hydrogel (R), PFB-Phe-Ile-Lys-Val-Ala-Val] ({Phenylacetyl(2,3,4,5,6-F5)}-F[Ile(3ξ)]KVAV-OH)",
45 °C,2×10^4 Pa,"O=C(Cc1c(F)c(F)c(F)c(F)c1F)N[C@@H](Cc1ccccc1)C(=O)N[C@@H](Cc1ccccc1)C(=O)O [hydrogel (D), PFB-Phe-Phe]",
42 °C,1×10^3 Pa,"CCC(C)[C@H](NC(=O)Cc1c(F)c(F)c(F)c(F)c1F)C(=O)N[C@@H](CCCCN)C(=O)N[C@H](C(=O)N[C@@H](C)C(=O)N[C@H](C(=O)O)C(C)C)C(C)C (stereo partly drawn) [hydrogel (M), PFB-Ile-Lys-Val-Ala-Val] ({Phenylacetyl(2,3,4,5,6-F5)}-[Ile(3ξ)]KVAV-OH)",
